# ChEMBL document CHEMBL5726842, “Bicyclic azaheterocyclobenzylamines as PI3K inhibitors” (2019)
# Molecular target: T1, Phosphatidylinositol 4,5-bisphosphate 3-kinase catalytic subunit delta isoform (Homo sapiens, UniProt O00329)
# T1 sequence (O00329 whole entry): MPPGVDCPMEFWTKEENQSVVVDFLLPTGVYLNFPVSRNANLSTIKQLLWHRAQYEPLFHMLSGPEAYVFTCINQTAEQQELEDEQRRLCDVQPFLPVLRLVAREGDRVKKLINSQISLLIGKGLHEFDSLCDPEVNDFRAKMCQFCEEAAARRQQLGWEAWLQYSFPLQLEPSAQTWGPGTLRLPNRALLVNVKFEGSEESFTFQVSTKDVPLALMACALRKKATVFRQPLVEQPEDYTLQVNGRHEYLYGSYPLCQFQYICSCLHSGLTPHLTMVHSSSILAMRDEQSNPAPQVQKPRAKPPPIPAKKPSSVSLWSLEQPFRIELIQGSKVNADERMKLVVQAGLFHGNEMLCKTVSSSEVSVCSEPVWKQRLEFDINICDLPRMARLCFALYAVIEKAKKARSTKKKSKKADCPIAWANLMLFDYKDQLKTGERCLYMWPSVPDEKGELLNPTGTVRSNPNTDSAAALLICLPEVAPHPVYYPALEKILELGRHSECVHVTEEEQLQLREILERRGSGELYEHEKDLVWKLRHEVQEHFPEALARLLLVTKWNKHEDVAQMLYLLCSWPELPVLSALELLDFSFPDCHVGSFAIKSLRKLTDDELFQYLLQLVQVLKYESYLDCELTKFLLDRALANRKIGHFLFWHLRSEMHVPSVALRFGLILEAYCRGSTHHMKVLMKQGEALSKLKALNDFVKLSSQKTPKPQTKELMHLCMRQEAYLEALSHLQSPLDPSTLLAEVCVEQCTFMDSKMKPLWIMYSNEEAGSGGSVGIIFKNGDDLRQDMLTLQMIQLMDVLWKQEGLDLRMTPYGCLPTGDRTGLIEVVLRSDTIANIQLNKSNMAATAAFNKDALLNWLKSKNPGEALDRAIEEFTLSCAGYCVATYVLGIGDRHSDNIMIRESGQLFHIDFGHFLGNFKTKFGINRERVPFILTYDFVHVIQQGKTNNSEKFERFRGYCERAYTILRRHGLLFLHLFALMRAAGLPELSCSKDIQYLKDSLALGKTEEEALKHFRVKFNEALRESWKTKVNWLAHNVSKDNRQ
# Assay: PI3Kdelta Scintillation Proximity Assay: [γ-33P]ATP (10mCi/mL) was purchased from Perkin-Elmer (Waltham, Mass.). Lipid kinase substrate, D-myo-Phosphatidylinositol 4,5-bisphosphate (PtdIns(4,5)P2)D (+)-sn-1,2-di-O-octanoylglyceryl, 3-O-phospho linked (PIP2), CAS 204858-53-7, was purchased from Echelon Biosciences (Salt Lake City, Utah). PI3Kδ (p110δ/p85α) was purchased from Millipore (Bedford, Mass.). ATP, MgCl2, DTT, EDTA, MOPS and CHAPS were purchased from Sigma-Aldrich (St. Louis, Mo.). Wheat Germ Agglutinin (WGA) YSi SPA Scintillation Beads was purchased from GE healthcare life sciences (Piscataway, N.J.).The kinase reaction was conducted in polystyrene 384-well matrix white plate from Thermo Fisher Scientific in a final volume of 25 μL. Inhibitors were first diluted serially in DMSO and added to the plate wells before the addition of other reaction components. The final concentration of DMSO in the assay was 0.5%. The PI3K assays were carried out at room temperature in 20 mM MOPS, pH 6.7, 10 mM MgCl2, 5 mM DTT and CHAPS 0.03%.Reactions were initiated by the addition of ATP, the final reaction mixture consisted of 20 μM PIP2, 20 μM ATP, 0.2 μCi [γ-33P] ATP, 4 nM PI3Kδ. Reactions were incubated for 210 min and terminated by the addition of 40 μL SPA beads suspended in quench buffer: 150 mM potassium phosphate pH 8.0, 20% glycerol. 25 mM EDTA, 400 μM ATP. […]
structure (smiles),measurement,value
Cc1nn(C(C)c2cc(Cl)c(F)c3c2O[C@H](C)CN(C2CC(C(=O)O)C2)C3)c2ncnc(N)c12 (stereo partly specified),IC50,< 100 nM
